According to ChEMBL document CHEMBL4340530, “Peptide-based covalent inhibitors of MALT1 paracaspase” (Bioorg Med Chem Lett, 2019):
Activity calls are given as the source filed them. No cut-off for these calls is given here.

Columns and labels:
[1] = test system: OCI-Ly1; experiment: Antiproliferative activity against human OCI-LY1 cells up to 20 uM; type: functional, cell-based
[2] = target: T1, Mucosa-associated lymphoid tissue lymphoma translocation protein 1 (Homo sapiens) (UniProt Q9UDY8); experiment: Inhibition of MALT1 in human OCI-LY3 cells assessed as reduction in Relb cleavage at 20 uM by Western blot analysis; type: cell-based
T1 sequence (whole entry): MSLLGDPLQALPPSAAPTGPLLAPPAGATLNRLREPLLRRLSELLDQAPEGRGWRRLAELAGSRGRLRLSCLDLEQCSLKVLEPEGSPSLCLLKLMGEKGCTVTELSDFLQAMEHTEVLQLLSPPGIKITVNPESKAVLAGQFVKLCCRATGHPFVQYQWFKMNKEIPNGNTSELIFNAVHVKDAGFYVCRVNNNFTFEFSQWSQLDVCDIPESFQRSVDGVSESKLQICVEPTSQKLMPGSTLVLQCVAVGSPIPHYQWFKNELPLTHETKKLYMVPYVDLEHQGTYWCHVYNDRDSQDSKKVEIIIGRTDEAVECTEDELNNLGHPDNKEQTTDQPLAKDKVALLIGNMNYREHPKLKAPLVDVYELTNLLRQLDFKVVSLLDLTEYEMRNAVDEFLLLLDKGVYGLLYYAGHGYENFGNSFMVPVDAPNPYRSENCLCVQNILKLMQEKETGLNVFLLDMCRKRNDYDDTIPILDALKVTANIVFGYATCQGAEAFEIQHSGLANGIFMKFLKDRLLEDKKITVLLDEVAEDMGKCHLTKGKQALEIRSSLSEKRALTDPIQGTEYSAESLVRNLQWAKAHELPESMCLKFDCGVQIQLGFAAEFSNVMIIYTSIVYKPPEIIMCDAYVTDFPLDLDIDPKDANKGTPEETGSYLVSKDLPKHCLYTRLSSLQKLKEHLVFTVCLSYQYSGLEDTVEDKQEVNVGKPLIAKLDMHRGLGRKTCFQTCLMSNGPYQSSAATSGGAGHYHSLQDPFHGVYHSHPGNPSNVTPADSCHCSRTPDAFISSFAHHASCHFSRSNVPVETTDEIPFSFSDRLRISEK

[3] = target: T2, Mucosa-associated lymphoid tissue lymphoma translocation protein 1 (Homo sapiens, UniProt Q9UDY8); experiment: Inhibition of recombinant LZ-fused MALT1 (340 to 789 residues) (unknown origin) using Ac-LRSR-AMC as substrate by fluorescence assay
T2 sequence (Q9UDY8 whole entry): T1 sequence (whole entry)

[4] = test system: OCI-Ly3; experiment: Antiproliferative activity against human OCI-LY3 cells assessed as growth inhibition treated every 48 hrs measured after 96 hrs by CellTiter-Glo assay; type: functional
[5] = target: Prothrombin (Homo sapiens) (UniProt P00734); experiment: Inhibition of thrombin (unknown origin) at 100 nM relative to control
[6] = target: T3, Trypsin (Homo sapiens) (UniProt P07477+P07478+P35030); experiment: Inhibition of trypsin (unknown origin) at 1 uM relative to control; type: protein assay
[7] = target: Cathepsin B (Homo sapiens) (UniProt P07858); experiment: Inhibition of cathepsin B (unknown origin) at 10 uM relative to control
[8] = target: T4, Calpain1/2 (Homo sapiens) (UniProt P17655+P07384); experiment: Inhibition of calpain (unknown origin) at 10 uM relative to control; type: protein assay
[9] = target: Procathepsin L (Homo sapiens) (UniProt P07711); experiment: Inhibition of cathepsin L (unknown origin) at 10 uM relative to control
[10] = target: T5, Cathepsin L2 (Homo sapiens) (UniProt O60911); experiment: Inhibition of cathepsin V (unknown origin) at 1 uM relative to control
T5 sequence (whole entry): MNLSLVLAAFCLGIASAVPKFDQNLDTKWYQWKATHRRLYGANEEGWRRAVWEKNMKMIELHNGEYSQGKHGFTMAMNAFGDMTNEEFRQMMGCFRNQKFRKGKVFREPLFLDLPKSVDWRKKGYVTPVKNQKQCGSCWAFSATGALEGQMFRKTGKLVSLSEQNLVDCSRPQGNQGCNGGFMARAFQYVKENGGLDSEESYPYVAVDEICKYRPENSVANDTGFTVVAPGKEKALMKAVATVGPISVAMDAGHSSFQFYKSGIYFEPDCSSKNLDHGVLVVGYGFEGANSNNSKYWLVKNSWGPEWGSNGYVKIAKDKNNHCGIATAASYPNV

[11] = target: Cathepsin S (Homo sapiens) (UniProt P25774); experiment: Inhibition of cathepsin S (unknown origin) at 1 uM relative to control
[12] = target: Cathepsin B (Homo sapiens) (UniProt P07858); experiment: Inhibition of cathepsin B (unknown origin) at 1 uM relative to control
[13] = target: T4, Calpain1/2 (Homo sapiens); experiment: Inhibition of calpain (unknown origin) at 100 nM relative to control; type: protein assay
[14] = target: T6, Cathepsin K (Homo sapiens) (UniProt P43235); experiment: Inhibition of cathepsin K (unknown origin) at 100 nM relative to control
T6 sequence (whole entry): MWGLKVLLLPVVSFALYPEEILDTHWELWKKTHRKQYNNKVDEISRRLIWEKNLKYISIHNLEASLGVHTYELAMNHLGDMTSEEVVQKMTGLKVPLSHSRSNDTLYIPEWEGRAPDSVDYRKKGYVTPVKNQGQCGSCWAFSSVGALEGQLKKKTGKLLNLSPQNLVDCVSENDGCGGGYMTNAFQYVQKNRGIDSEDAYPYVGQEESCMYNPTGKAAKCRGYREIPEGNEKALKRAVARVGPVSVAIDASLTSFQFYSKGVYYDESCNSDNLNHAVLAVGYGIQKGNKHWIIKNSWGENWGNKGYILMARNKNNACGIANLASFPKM

[15] = target: Tryptase beta-2 (Homo sapiens) (UniProt P20231); experiment: Inhibition of tryptase b2 (unknown origin) at 1 uM relative to control
[16] = target: Cathepsin B (Homo sapiens) (UniProt P07858); experiment: Inhibition of cathepsin B (unknown origin) at 100 nM relative to control
[17] = target: T6, Cathepsin K (Homo sapiens); experiment: Inhibition of cathepsin K (unknown origin) at 10 uM relative to control
[18] = target: Tryptase beta-2 (Homo sapiens) (UniProt P20231); experiment: Inhibition of tryptase b2 (unknown origin) at 10 uM relative to control
[19] = target: T4, Calpain1/2 (Homo sapiens); experiment: Inhibition of calpain (unknown origin) at 1 uM relative to control; type: protein assay
[20] = target: T3, Trypsin (Homo sapiens); experiment: Inhibition of trypsin (unknown origin) at 10 uM relative to control; type: protein assay
[21] = target: Prothrombin (Homo sapiens) (UniProt P00734); experiment: Inhibition of thrombin (unknown origin) at 1 uM relative to control
[22] = target: Cathepsin S (Homo sapiens) (UniProt P25774); experiment: Inhibition of cathepsin S (unknown origin) at 100 nM relative to control
[23] = target: T6, Cathepsin K (Homo sapiens); experiment: Inhibition of cathepsin K (unknown origin) at 1 uM relative to control
[24] = target: T5, Cathepsin L2 (Homo sapiens); experiment: Inhibition of cathepsin V (unknown origin) at 10 uM relative to control
[25] = target: Cathepsin S (Homo sapiens) (UniProt P25774); experiment: Inhibition of cathepsin S (unknown origin) at 10 uM relative to control
[26] = target: T3, Trypsin (Homo sapiens); experiment: Inhibition of trypsin (unknown origin) at 100 nM relative to control; type: protein assay
[27] = target: Tryptase beta-2 (Homo sapiens) (UniProt P20231); experiment: Inhibition of tryptase b2 (unknown origin) at 100 nM relative to control
[28] = target: Prothrombin (Homo sapiens) (UniProt P00734); experiment: Inhibition of thrombin (unknown origin) at 10 uM relative to control
[29] = target: Procathepsin L (Homo sapiens) (UniProt P07711); experiment: Inhibition of cathepsin L (unknown origin) at 100 nM relative to control
[30] = target: Procathepsin L (Homo sapiens) (UniProt P07711); experiment: Inhibition of cathepsin L (unknown origin) at 1 uM relative to control
[31] = target: T5, Cathepsin L2 (Homo sapiens); experiment: Inhibition of cathepsin V (unknown origin) at 100 nM relative to control

Chain of Procathepsin L (Homo sapiens) (P07711 114-333 limits assumed): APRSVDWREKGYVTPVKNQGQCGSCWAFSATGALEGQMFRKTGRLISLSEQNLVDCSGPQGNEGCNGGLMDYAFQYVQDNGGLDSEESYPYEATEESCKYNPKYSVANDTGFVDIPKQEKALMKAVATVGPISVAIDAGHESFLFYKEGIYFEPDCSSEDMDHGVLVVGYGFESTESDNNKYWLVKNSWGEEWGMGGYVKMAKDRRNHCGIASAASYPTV
T4 sequence (P07384 whole entry, looked up): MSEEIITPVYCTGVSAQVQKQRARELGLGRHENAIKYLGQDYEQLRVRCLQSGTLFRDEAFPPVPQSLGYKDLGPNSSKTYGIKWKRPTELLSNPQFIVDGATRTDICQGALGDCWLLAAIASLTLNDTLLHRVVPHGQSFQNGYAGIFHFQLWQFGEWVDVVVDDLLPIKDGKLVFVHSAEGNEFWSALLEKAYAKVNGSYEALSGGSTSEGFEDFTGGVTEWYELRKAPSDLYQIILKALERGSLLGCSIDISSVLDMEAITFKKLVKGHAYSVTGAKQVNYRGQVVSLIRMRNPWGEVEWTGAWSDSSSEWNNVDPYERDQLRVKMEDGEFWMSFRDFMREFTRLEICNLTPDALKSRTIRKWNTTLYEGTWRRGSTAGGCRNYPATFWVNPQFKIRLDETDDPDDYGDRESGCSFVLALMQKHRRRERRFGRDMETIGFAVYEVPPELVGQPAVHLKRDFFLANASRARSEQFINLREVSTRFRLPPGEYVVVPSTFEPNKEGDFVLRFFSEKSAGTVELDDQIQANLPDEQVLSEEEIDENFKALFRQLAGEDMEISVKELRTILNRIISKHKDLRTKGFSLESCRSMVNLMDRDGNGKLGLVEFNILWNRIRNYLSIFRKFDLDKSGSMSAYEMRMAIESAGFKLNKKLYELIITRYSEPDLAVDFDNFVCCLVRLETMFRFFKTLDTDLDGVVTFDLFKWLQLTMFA
T4 sequence (P17655 whole entry, looked up): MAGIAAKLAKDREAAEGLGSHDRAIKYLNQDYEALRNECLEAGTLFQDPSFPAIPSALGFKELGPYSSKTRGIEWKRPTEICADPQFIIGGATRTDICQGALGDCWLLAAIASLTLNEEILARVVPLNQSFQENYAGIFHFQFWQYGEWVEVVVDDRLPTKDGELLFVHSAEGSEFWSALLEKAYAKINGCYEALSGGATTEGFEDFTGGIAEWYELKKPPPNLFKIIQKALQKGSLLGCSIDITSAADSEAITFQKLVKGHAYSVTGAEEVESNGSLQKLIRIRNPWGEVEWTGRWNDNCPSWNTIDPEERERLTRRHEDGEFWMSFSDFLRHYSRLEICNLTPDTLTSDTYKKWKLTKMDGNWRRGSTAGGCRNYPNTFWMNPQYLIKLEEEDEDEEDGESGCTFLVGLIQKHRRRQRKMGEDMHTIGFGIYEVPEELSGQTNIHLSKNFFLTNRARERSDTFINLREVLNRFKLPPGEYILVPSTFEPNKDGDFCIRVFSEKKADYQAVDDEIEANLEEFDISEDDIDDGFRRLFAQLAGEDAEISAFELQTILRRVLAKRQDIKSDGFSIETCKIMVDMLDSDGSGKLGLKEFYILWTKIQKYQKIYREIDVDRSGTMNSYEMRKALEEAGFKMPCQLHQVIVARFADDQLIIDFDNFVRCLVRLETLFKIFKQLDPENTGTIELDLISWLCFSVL
Chain of Tryptase beta-2 (Homo sapiens) (P20231 whole entry): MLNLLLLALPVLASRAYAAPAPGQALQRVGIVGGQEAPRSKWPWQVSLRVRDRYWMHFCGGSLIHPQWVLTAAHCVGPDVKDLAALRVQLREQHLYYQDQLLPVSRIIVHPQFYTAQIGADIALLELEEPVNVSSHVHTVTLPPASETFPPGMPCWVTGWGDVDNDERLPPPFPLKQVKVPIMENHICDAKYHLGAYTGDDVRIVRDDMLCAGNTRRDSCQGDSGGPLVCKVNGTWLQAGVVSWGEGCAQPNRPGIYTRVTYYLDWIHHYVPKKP
Chain of Cathepsin S (Homo sapiens) (P25774 115-331 limits assumed): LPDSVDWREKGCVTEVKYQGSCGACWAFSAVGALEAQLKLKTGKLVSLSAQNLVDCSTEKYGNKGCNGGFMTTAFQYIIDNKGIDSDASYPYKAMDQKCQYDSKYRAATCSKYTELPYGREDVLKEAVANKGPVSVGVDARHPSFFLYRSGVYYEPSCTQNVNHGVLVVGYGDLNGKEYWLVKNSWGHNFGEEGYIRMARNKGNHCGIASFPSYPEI

GI50 [4] [nM]	inhibition [5] [%]	inhibition [6] [%]	inhibition [7] [%]	inhibition [8] [%]	inhibition [9] [%]	inhibition [10] [%]	inhibition [11] [%]	inhibition [12] [%]	inhibition [13] [%]	inhibition [14] [%]	inhibition [15] [%]	inhibition [16] [%]	inhibition [17] [%]	inhibition [18] [%]	inhibition [19] [%]	inhibition [20] [%]	inhibition [21] [%]	inhibition [22] [%]	inhibition [23] [%]	Compound	other results
> 20000																				CCC(=O)[C@H](CCCNC(=N)N)NC(=O)[C@@H]1CCCN1C(=O)[C@@H](NC(=O)[C@H](CC(C)C)NC(=O)OCc1ccccc1)C(C)C	Activity [1]: inactive; inhibition [2]: inactive; Ki [3]: > 5 µM
460	4.6	91	98.2	112	36.2	32.1	85.7	79.7	25.9	68.7	3.4	10.7	98.9	31	76	93.7	19.4	82.2	98.1	CC(C)[C@H](NC(=O)c1ccc(Br)cc1)C(=O)N1CCCC[C@H]1C(=O)N[C@@H](CCCNC(=N)N)C(=O)CF	inhibition [24]: 86.3%; inhibition [25]: 99.7%; inhibition [26]: 65%; inhibition [27]: 1%; inhibition [28]: 75.8%
150	2.3	92.6	100	105	49.4	58.4	100	99.5	98.5	28.8	15.3	88.7	89.7	47.5	99.8	94.2	1.1	99	38.3	CC(C)[C@H](NC(=O)c1ccc(Br)cc1)C(=O)N[C@@H](CO)C(=O)N[C@@H](CCCNC(=N)N)C(=O)CF	inhibition [29]: 13%; inhibition [30]: 11.2%; inhibition [24]: 94.1%; inhibition [25]: 100%; inhibition [26]: 64%; inhibition [27]: 6.5%; inhibition [31]: 29.8%; inhibition [28]: 41.8%
